Where a name gives a salt, the structure may show the parent alone.
Legend:
human TDO2 [1] = molecular target: T1, human TDO2 (Homo sapiens (Human), UniProt P48775); test: Assay for TDO2 enzymatic activity determination; format: biochemical; conditions: human recombinant TDO2, L-Trp 1 mM, kynurenine absorbance at 480 nm
Protocol: The compounds of formula I inhibit the enzymatic activity of human TDO2.
To measure the TDO2 activity, the procedure described in Dolusic et al. J. Med. Chem.; 2011, 54, […] was adapted: the reaction mixture contained (final concentrations) potassium phosphate buffer (50 mM, pH 7.5), ascorbic acid (0.25 M), methylene blue (0.125 μM), catalase (40 units/mL, from bovine liver, Sigma), and human recombinant TDO2 enzyme (prepared as described in Dolusic et al. J. Med. Chem.; 2011, 54, 5320-5334; 0.9 μg) without or with the compounds of the present invention at the indicated concentrations (total volume 112.5 μL). The reaction was initiated by the addition of 37.5 μL of L-Trp (final concentration 1 mM) at room temperature. The reaction was conducted at room temperature during one hour and stopped by the addition of 30 μL of 30% (w/v) trichloroacetic acid.
To convert N-formylkynurenine into kynurenine, the reaction mixture was incubated at 65° C. for 30 min. Then 150 μL of the reaction mixture was mixed with 120 μL of 2.5% (w/v) 4-(dimethylamino)-benzaldehyde in acetic acid and incubated for 5 min at room temperature. Kynurenine concentrations were determined by measuring the absorbance at 480 nm. A standard curve was made with pure kynurenine. The TDO activity was measured as described above using ten serial concentrations of the compounds of the present invention. Data were fitted using the Prism™ software (GraphPad Software, Inc.) using standard software configurations.

human TDO2 [2] = molecular target: T1, human TDO2; test: Cellular assay for TDO2 activity, hTDO2-overexpressing P815 cells; format: cell-based; conditions: murine mastocytoma P815 cells overexpressing hTDO2, overnight incubation, kynurenine in supernatant
Protocol: The compounds of Formula I inhibit the activity of human TDO2 in cells.
The assay (adapted from Pilotte L et al., Proc Natl Acad Sci USA, 2012, 109(7), 2497-502) was performed in 96-well flat bottom plates seeded with murine mastocytoma P815 cells overexpressing hTDO2 (prepared as described in Pilotte et al., PNAS, 2012, 109(7), 2497-2502), at a concentration of 5×10^4 cells/well in a final volume of 200 μL. To determine TDO or IDO activity, the cells were incubated overnight at 37° C. at 5% CO2 in IMDM (Invitrogen) supplemented with 2% FBS and 2% penicillin/streptomycin in the presence of the compounds of the present invention, at different concentrations. The cells may be obtained from the American Type Cuylture Collecion [ATCC® TIB-64™ or commercially, e.g., from Sigma-Aldrich or Life Technologies.]
(§1) The plates were then centrifuged 5 min at 1000 rpm, and 100 μL of the supernatant were collected in a conical plate, 30 uL of TCA 30% were added and a further centrifugated at 3000×g for 10 minutes. 100 μL of the supernatant were collected in a flat bottomed plate and 100 μL of 2% (w/v) 4-(dimethylamino)-benzaldehyde in acetic acid and incubated for 5 min at room temperature. Kynurenine concentrations were determined by measuring the absorbance at 480 nm. A standard curve was made with pure kynurenine. The TDO activity was measured as described above using ten serial concentrations of the compounds of the present invention. Data were fitted using the Prism™ software (GraphPad Software, Inc.) using standard software configurations.

human TDO2 [3] = molecular target: T1, human TDO2; test: Cellular assay for TDO2 activity, A172 cells naturally expressing hTDO2; format: cell-based; conditions: human glioblastoma A172 cells, overnight incubation, kynurenine in supernatant
Protocol: A172 is a cell line derived from human brain glioblastoma cells.
To determine TDO, the cells were incubated overnight at 37° C. at 5% CO2 in IMDM (Invitrogen) supplemented with 2% FBS and 2% penicillin/streptomycin in the presence of the compounds of the present invention, at different concentrations.
as §1

T1 sequence (P48775 whole entry): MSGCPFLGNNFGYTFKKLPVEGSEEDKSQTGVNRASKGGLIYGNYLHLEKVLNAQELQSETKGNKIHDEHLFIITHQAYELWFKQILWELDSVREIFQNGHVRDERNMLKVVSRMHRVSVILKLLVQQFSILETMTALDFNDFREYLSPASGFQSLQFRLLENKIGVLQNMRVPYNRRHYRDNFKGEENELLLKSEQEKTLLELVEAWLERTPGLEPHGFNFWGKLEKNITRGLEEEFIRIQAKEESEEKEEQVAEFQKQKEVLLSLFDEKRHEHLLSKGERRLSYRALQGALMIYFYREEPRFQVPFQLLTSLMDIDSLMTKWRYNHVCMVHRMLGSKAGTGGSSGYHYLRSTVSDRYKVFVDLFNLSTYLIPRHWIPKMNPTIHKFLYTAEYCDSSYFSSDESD

SMILES	IC50 (human TDO2 [1]) [nM]	IC50 (human TDO2 [2]) [nM]	IC50 (human TDO2 [3]) [nM]
CCN1CCC(Nc2ccc(-c3c[nH]c4cc(F)ccc34)cn2)CC1 [Example 18, N-(1-ethylpiperidin-4-yl)-5-(6-fluoro-1H-indol-3-yl)pyridin-2-amine]	4800	–	–
Fc1ccc2c(-c3ccc(NC4CCNCC4)nc3)c[nH]c2c1 [Example 17, 5-(6-fluoro-1H-indol-3-yl)-N-(piperidin-4-yl)pyridin-2-amine]	870	1300	–
CS(=O)(=O)N1CCC(Nc2ccc(-c3c[nH]c4cc(F)ccc34)cn2)CC1 [Example 19, 5-(6-fluoro-1H-indol-3-yl)-N-(1-(methylsulfonyl)piperidin-4-yl)pyridin-2-amine]	650	–	–
NCC(=O)N1CCN(c2ccc(-c3c[nH]c4cc(F)ccc34)cn2)CC1 [Example 11, 2-amino-1-(4-(5-(6-fluoro-1H-indol-3-yl)pyridin-2-yl)piperazin-1-yl)ethanone]	650	650	–
[O-][n+]1cccc(-c2c[nH]c3cc(F)ccc23)c1 [Example 49, 3-(6-fluoro-1H-indol-3-yl)pyridine 1-oxide]	11000	–	–
Fc1ccc2c(-c3ccc(N4CCOCC4)nc3)c[nH]c2c1 [Example 9, 4-(5-(6-fluoro-1H-indol-3-yl)pyridin-2-yl)morpholine]	540	210	–
Cc1cncc(-c2c[nH]c3cc(F)ccc23)c1 [Example 48, 6-fluoro-3-(5-methylpyridin-3-yl)-1H-indole]	4500	620	–
CN1CCN(c2ccc(-c3c[nH]c4cc(F)ccc34)cn2)CC1 [Example 10, 6-fluoro-3-(6-(4-methylpiperazin-1-yl)pyridin-3-yl)-1H-indole]	720	130	–
NCC(=O)NC1CCN(c2ccc(-c3c[nH]c4cc(F)ccc34)cn2)CC1 [Example 13, 2-amino-N-(1-(5-(6-fluoro-1H-indol-3-yl)pyridin-2-yl)piperidin-4-yl)acetamide]	1700	550	–
Cc1ncccc1-c1c[nH]c2cc(F)ccc12 [Example 45, 6-fluoro-3-(2-methylpyridin-3-yl)-1H-indole]	860	220	–
CS(=O)(=O)N1CCC(C(=O)Nc2ccc(-c3c[nH]c4cc(F)ccc34)cn2)CC1 [Example 61, N-(5-(6-fluoro-1H-indol-3-yl)pyridin-2-yl)-1-(methylsulfonyl)piperidine-4-carboxamide]	–	170	990
Cc1ccncc1-c1c[nH]c2cc(F)ccc12 [Example 46, 6-fluoro-3-(4-methylpyridin-3-yl)-1H-indole]	13000	670	–
Nc1ccc(-c2c[nH]c3cc(F)c(F)cc23)cn1 [Example 16, 5-(5,6-difluoro-1H-indol-3-yl)pyridin-2-amine]	1600	–	–
Fc1cc2[nH]cc(-c3cccnc3)c2cc1F [Example 47, 5,6-difluoro-3-(pyridin-3-yl)-1H-indole]	2800	240	–

The next lines start with the values.

IC50 (human TDO2 [1]) [nM]	IC50 (human TDO2 [2]) [nM]	IC50 (human TDO2 [3]) [nM]	SMILES
870	–	–	CC(=O)NCCCNc1ccc(-c2c[nH]c3cc(F)ccc23)cn1 [Example 20, N-(3-(5-(6-fluoro-1H-indol-3-yl)pyridin-2-ylamino)propyl)acetamide]
790	120	–	NC(=O)CNc1ccc(-c2c[nH]c3cc(F)ccc23)cn1 [Example 31, 2-(5-(6-fluoro-1H-indol-3-yl)pyridin-2-ylamino)acetamide]
1100	130	–	Nc1ccc(-c2c[nH]c3cc(F)ccc23)cn1 [Example 15, 5-(6-fluoro-1H-indol-3-yl)pyridin-2-amine]
1000	150	130	CC(=O)Nc1ccc(-c2c[nH]c3cc(F)ccc23)cn1 [Example 40, N-(5-(6-fluoro-1H-indol-3-yl)pyridin-2-yl)acetamide]
490	190	–	OCCNc1ccc(-c2c[nH]c3cc(F)ccc23)cn1 [Example 27, 2-(5-(6-fluoro-1H-indol-3-yl)pyridin-2-ylamino)ethanol]
1600	1500	–	O=C(O)CNc1ccc(-c2c[nH]c3cc(F)ccc23)cn1 [Example 30, 2-(5-(6-fluoro-1H-indol-3-yl)pyridin-2-ylamino)acetic acid]
710	–	–	CS(=O)(=O)NCCNc1ccc(-c2c[nH]c3cc(F)ccc23)cn1 [Example 26, N-(2-(5-(6-fluoro-1H-indol-3-yl)pyridin-2-ylamino)ethyl)methanesulfonamide hydrochloride]
1200	400	–	CS(=O)(=O)CCCNc1ccc(-c2c[nH]c3cc(F)ccc23)cn1 [Example 22, 5-(6-fluoro-1H-indol-3-yl)-N-(3-(methylsulfonyl)propyl)pyridin-2-amine]
1200	–	–	CN1CCC(Oc2ccc(-c3c[nH]c4cc(F)ccc34)cn2)CC1 [Example 3, 6-fluoro-3-(6-(1-methylpiperidin-4-yloxy)pyridin-3-yl)-1H-indole]
290	240	1600	CNc1ccc(-c2c[nH]c3cc(F)ccc23)cn1 [Example 34, 5-(6-fluoro-1H-indol-3-yl)-N-methylpyridin-2-amine]
730	120	–	COc1ccc(-c2c[nH]c3cc(F)ccc23)cn1 [Example 5, 6-fluoro-3-(6-methoxypyridin-3-yl)-1H-indole]
380	320	–	CN(C)c1ccc(-c2c[nH]c3cc(F)ccc23)cn1 [Example 7, 5-(6-fluoro-1H-indol-3-yl)-N,N-dimethylpyridin-2-amine]
560	–	–	Fc1ccc2c(-c3ccc(OC4CCNCC4)nc3)c[nH]c2c1 [Example 2, 6-fluoro-3-(6-(piperidin-4-yloxy)pyridin-3-yl)-1H-indole]
370	180	–	Cc1ccc(-c2c[nH]c3cc(F)ccc23)cn1 [Example 1, 6-fluoro-3-(6-methylpyridin-3-yl)-1H-indole]
1300	–	–	CS(=O)(=O)N1CCC(Oc2ccc(-c3c[nH]c4cc(F)ccc34)cn2)CC1 [Example 6, 6-fluoro-3-(6-(1-(methylsulfonyl)piperidin-4-yloxy)pyridin-3-yl)-1H-indole]
16000	–	490	O=C1NCCN1c1ccc(-c2c[nH]c3cc(F)ccc23)cn1 [Example 78, 1-(5-(6-fluoro-1H-indol-3-yl)pyridin-2-yl)imidazolidin-2-one]
850	68	600	Fc1ccc2c(-c3cccnc3)c[nH]c2c1 [Example 44, 6-fluoro-3-(pyridin-3-yl)-1H-indole]
1500	1000	–	CS(=O)(=O)CCNc1ccc(-c2c[nH]c3cc(F)ccc23)cn1 [Example 28, 5-(6-fluoro-1H-indol-3-yl)-N-(2-(methylsulfonyl)ethyl)pyridin-2-amine]
620	350	–	CS(=O)(=O)NCCCNc1ccc(-c2c[nH]c3cc(F)ccc23)cn1 [Example 21, N-(3-(5-(6-fluoro-1H-indol-3-yl)pyridin-2-ylamino)propyl)methanesulfonamide]
39000	680	–	CN(C)CCOc1ccc(-c2c[nH]c3cc(F)ccc23)cn1 [Example 4, 2-(5-(6-fluoro-1H-indol-3-yl)pyridin-2-yloxy)-N,N-dimethylethanamine]
540	140	–	CN(C)CCNc1ccc(-c2c[nH]c3cc(F)ccc23)cn1 [Example 25, N^1-(5-(6-fluoro-1H-indol-3-yl)pyridin-2-yl)-N^2,N^2-dimethylethane-1,2-diamine]

— US9758505B2, “3-(indol-3-yl)-pyridine derivatives, pharmaceutical compositions and methods for use” (ITEOS THERAPEUTICS, priority 2014, dated 2017)
